In PubChem BioAssay (NCI):
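1) Cells in 96-well plates. 2) Compound, 48 h, 5 concentrations. 3) Linear interpolation between surrounding doses. 4) Unreached endpoint = highest concentration. GI50 = concentration required for 50% inhibition of growth. TGI: total growth inhibition.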

Experiments:
Assay in all cases: growth of human tumour cells (NCI), 48 h
HT29 colon = system: HT29 colon
NCI-H23 lung = system: NCI-H23 lung
M14 melanoma = system: M14 melanoma
DLD-1 colon = system: DLD-1 colon
KM20L2 colon = system: KM20L2 colon
NCI-H522 lung = system: NCI-H522 lung
HCT-15 colon = system: HCT-15 colon
DMS 273 small cell lung = system: DMS 273 small cell lung
MDA-MB-231 breast = system: MDA-MB-231 breast
NCI/ADR-RES ovarian = system: NCI/ADR-RES ovarian

Row | SMILES | TGI (HT29 colon) [µM] | TGI (NCI-H23 lung) [µM] | TGI (M14 melanoma) [µM] | TGI (DLD-1 colon) [µM] | TGI (KM20L2 colon) [µM] | TGI (NCI-H522 lung) [µM] | TGI (HCT-15 colon) [µM] | TGI (DMS 273 small cell lung) [µM] | TGI (MDA-MB-231 breast) [µM] | TGI (NCI/ADR-RES ovarian) [µM] | GI50 (HT29 colon) [µM] | GI50 (NCI-H23 lung) [µM] | GI50 (HCT-15 colon) [µM] | GI50 (M14 melanoma) [µM] | GI50 (MDA-MB-231 breast) [µM] | GI50 (NCI/ADR-RES ovarian) [µM] | GI50 (NCI-H522 lung) [µM]
1 | C/C(=N/NC(N)=S)C(CN1CCOCC1)C(C1=C(O)c2ccccc2OC1)c1ccccc1 (stereo not drawn) | > 100 | > 100 | > 100 | > 100 | > 100 | > 100 |  |  |  |  |  |  |  |  |  |  | 
2 | CC(NC1CCCC[C@@H]1O)c1ccccc1 (stereo partly drawn) | > 100 |  | > 100 | > 100 | > 100 |  | > 100 | > 100 |  |  |  |  |  |  |  |  | 
3 | CCOC(=O)NN1C(=O)C(=P(c2ccccc2)(c2ccccc2)c2ccccc2)C(C(=O)OC)=C1C | > 100 | > 100 | > 100 | > 100 | > 100 | > 100 | > 100 | > 100 |  |  |  |  |  |  |  |  | 
4 | O=S1(=O)CCC2=CC(C(F)(F)F)=CC(C(F)(F)F)=CN21 | 9.38 | 3.37 | 2.03 | 1.77 | 5.25 | 0.601 | 1.5 |  |  |  |  |  |  |  |  |  | 
5 | O=C1N=C2N=C(c3ccc(Cl)cc3)N(c3ccc(Cl)cc3)N2Sc2ccccc21 | > 100 | > 100 | > 100 | > 100 | > 100 | > 100 | > 100 | > 100 |  |  |  |  |  |  |  |  | 
6 | c1ccc(C2N=C(c3ccccn3)C(c3ccccn3)=NC2c2ccccc2)cc1 (stereo not drawn) | > 100 | > 100 | > 100 | > 100 | > 100 | > 100 | > 100 | > 100 |  |  |  |  |  |  |  |  | 
7 | COC(=O)C1=C(O)c2cc(OC)c(OC)c(OC)c2C(c2ccc3c(c2)OCO3)[C@@H]1C(=O)OC (stereo partly drawn) | 12.7 | > 100 | 10.7 | > 100 | 6.43 |  | > 100 | > 100 |  |  |  |  |  |  |  |  | 
8 | BrCc1ccc2ccc3ccc(CBr)nc3c2n1 | 4.61 | 19.4 | 8.79 |  | 29.3 |  | 4.18 | 3.34 | 6.86 | 5.15 |  |  |  |  |  |  | 
9 | Nc1ccccc1SC(/C=C/NNC1=NC(c2ccccc2)C(c2ccccc2)=NN1)c1ccccc1 (stereo not drawn) | 34.8 | 21.4 | 25.3 | 31.8 | 44.9 | 14.5 | 32 | 36.8 |  |  |  |  |  |  |  |  | 
10 | COC1CCC(OC)C(c2nc3sccn3c2/C=N/N=C(N)N)C1 (stereo not drawn) | > 8.71 | > 35.5 | 35.4 |  |  | > 72.2 | > 100 |  | 32.8 | > 100 | 2.59 | 3.69 | > 100 | 1.96 | 1.68 | > 100 | 30.4
11 | O=C(Nc1ccccc1)N1C(c2ccccc2)=N[C@@H](c2ccccc2)[C@@H]1c1ccccc1 | 31.6 | 55.4 | 28.2 | 35.6 | 37.3 |  | 60.4 |  |  |  |  |  |  |  |  |  | 
12 | CCOc1ccc2cc(-c3nn(CC4CCN(C)CC4)c4ncnc(N)c34)ccc2c1 | 27.3 | 41.6 | 32.5 |  |  | 33.5 | 30.9 |  | 18.4 | 28.2 | 7.01 | 15.1 | 12.3 | 15.8 | 4.52 | 14.7 | 16.6
13 | O=C(O)CCN1C(=S)CSC1=S | > 100 | > 100 | > 100 |  |  | > 100 | > 100 |  | > 100 | > 100 |  |  |  |  |  |  | 
14 | O=c1cc(-c2ccccc2)oc2cc(OCCCCCCCCCCOc3ccc4c(=O)cc(-c5ccccc5)oc4c3)ccc12 | > 100 | > 100 | > 100 |  | > 100 | > 100 | > 100 | > 100 |  |  |  |  |  |  |  |  | 
15 | COc1ccc(CN2c3ccccc3Sc3ccccc32)cc1O | 6.4 | 13.2 | 18.6 |  |  | 0.781 | 11.8 |  | 18.1 | 0.863 | 0.724 | 0.364 | 0.369 | 0.383 | 0.668 | 0.291 | 0.241
16 | O=C(NNC(=O)c1ccncc1)C(=O)Nc1cc(Cl)c(Cl)cc1Cl | > 100 | > 100 | > 100 |  |  | > 100 | > 100 |  | > 100 | > 100 |  |  |  |  |  |  | 
17 | C=C(c1ccccc1)c1cc2c(=O)[nH]ccc2n1C |  | > 100 | > 100 | > 100 | 59.7 | 54.9 | > 100 | > 100 |  |  |  |  |  |  |  |  | 
18 | CSC(=S)NCc1cn(C)c2ccccc12 | > 100 | 87.7 | > 100 |  |  | 86.1 | > 100 |  | 44.5 | > 100 | 65.3 | 29.8 | 26.8 | 64.8 | 15.4 | 30 | 21.5
19 | NCCOCCOCC(=O)O | > 100 | > 100 |  |  | > 100 | > 100 | > 100 | > 100 |  |  |  |  |  |  |  |  | 
20 | O=C(O)C12C=CC(C1)c1ccccc12 (stereo not drawn) | > 100 | > 100 | > 100 | > 100 | > 100 |  | > 100 | > 100 |  |  |  |  |  |  |  |  | 
21 | O=C(O)C1CC2C=CCC(C2)C1 (stereo not drawn) | > 100 | > 100 | > 100 | > 100 | > 100 | > 100 | > 100 | > 100 |  |  |  |  |  |  |  |  | 
22 | CCNC(=O)COc1ccc(Cl)c(C)c1 | > 100 | > 100 | > 100 | > 100 | > 100 | > 100 | > 100 | > 100 |  |  |  |  |  |  |  |  | 
23 | COc1ccc2c(c1)[n+](=O)c(/C=C/C(=O)c1cc(OC)c(OC)c(OC)c1)c(C)n2[O-] | 50.9 | 34 | 23.5 |  |  | 3.45 | 23.2 |  | 88.4 | 39.5 | 4.35 | 13.7 | 3.79 | 3.55 | 12.6 | 11.3 | 1.32
24 | C=C(CN1CCc2ccccc2C1)c1ccc(CCCC(=O)Nc2ccccc2N)cc1 | 30.4 | 48.6 | 33 |  |  | 7.15 | > 100 |  | 26.3 | 51.6 | 13.1 | 20.1 | 28 | 15.8 | 10.2 | 17.4 | 1.92
